{"source": "patent US20250041313A1", "about": "“COMBINATION THERAPY FOR TREATMENT OF CANCER” (CITY OF HOPE, priority 2023, published 2025)", "key": {"SBC5 xenograft": {"tested_on": "SBC5 xenograft", "test": "SBC5 mouse xenograft, Carbo/Leflu study", "format": "in vivo", "details": "Carbo 50 mg/kg, Leflu 7.5 mg/kg, i.p. twice a week", "protocol": "Athymic nude nu/nu mice were obtained from Charles River, Wilmington, MA, and were acclimated for a week before beginning the experiment. All animal experiments were carried out in accordance with a protocol approved by the Institutional Animal Care and Use Committee COH (IACUC #16004). For treatments, mice were divided into 4 groups with five mice per group and subcutaneously injected into one flank with 2×10^6 SBC3 or SBC5 cells suspensions in 100 μl of PBS. Treatment started on the 14th day when tumors became palpable. Two in vivo studies were done in this project. SBC3 and SBC 5 xenograft with i) vehicle control, ii) […] 50 mg/kg, iii) Leflu 7.5 mg/kg, and iv) […]/Leflu. SBC3 with i) vehicle control, ii) Lur 0.5 mg/kg, iii) Leflu 3.8 mg/kg, and iv) Lur/Leflu. Treatments were given to mice via i.p. twice a week for 6 weeks. Animals were examined daily for signs of tumor growth. Tumors were measured in two dimensions using calipers and body weights were recorded. Animals were photographed on days 1, 5, 10, 15, 20, 25, 30, 35, and 40 after treatment. Tumors were removed on day 40 and photographed. At the end of the study, the mice were euthanized by CO2 asphyxiation followed by cervical dislocation. The tumor weights were compared between groups using an unpaired Student's t-test. […] Mean immunofluorescence intensities were calculated with ZEN 2.3 Lite software."}, "SBC3 xenograft": {"tested_on": "SBC3 xenograft", "test": "SBC3 mouse xenograft, Carbo/Leflu study", "format": "in vivo", "protocol": "Athymic nude nu/nu mice were obtained from Charles River, Wilmington, MA, and were acclimated for a week before beginning the experiment. All animal experiments were carried out in accordance with a protocol approved by the Institutional Animal Care and Use Committee COH (IACUC #16004). For treatments, mice were divided into 4 groups with five mice per group and subcutaneously injected into one flank with 2×10^6 SBC3 or SBC5 cells suspensions in 100 μl of PBS. Treatment started on the 14th day when tumors became palpable. Two in vivo studies were done in this project. SBC3 and SBC 5 xenograft with i) vehicle control, ii) […] 50 mg/kg, iii) Leflu 7.5 mg/kg, and iv) […]/Leflu. SBC3 with i) vehicle control, ii) Lur 0.5 mg/kg, iii) Leflu 3.8 mg/kg, and iv) Lur/Leflu. Treatments were given to mice via i.p. twice a week for 6 weeks. Animals were examined daily for signs of tumor growth. Tumors were measured in two dimensions using calipers and body weights were recorded. Animals were photographed on days 1, 5, 10, 15, 20, 25, 30, 35, and 40 after treatment. Tumors were removed on day 40 and photographed. At the end of the study, the mice were euthanized by CO2 asphyxiation followed by cervical dislocation. The tumor weights were compared between groups using an unpaired Student's t-test. A portion of the tumor was fixed in 10% buffered formaldehyde solution and paraffin-embedded for immuno-staining. FFPE tumor sections were stained with pDRP Ser^616 antibody. Tumor sections were deparaffinized and rehydrated, followed by heat-mediated antigen retrieval (pH 6, Dako). After permeabilization and blocking, tumor sections were stained with pDRP1 Ser^616 antibody overnight, washed and incubated with Alexa 488 secondary antibody for one hour, mounted and observed on an LSM 880 with a 10×/0.45 NA objective (Carl Zeiss). Immunofluorescent confocal images were acquired for each treatment (magnification:100×). Mean immunofluorescence intensities were calculated with ZEN 2.3 Lite software."}, "H446 spheroids": {"tested_on": "H446 spheroids", "test": "Spheroid LDH cytotoxicity/death assay", "format": "cell-based, human", "details": "72 h", "protocol": "(§1) SBC3 and H446 cells were plated at a density of 10,000 cells per well in 96-well ULA round-bottomed plates (S-Bio, Hudson, NH) and incubated for 72 h at 37° C., 5% CO2, and 95% humidity. Spheroids were transferred to low cell attachment dishes, grown for two days, and treated with drug. After treatment, spheroid samples were run with Western blot assay. For spheroid mitochondria visualization, they were stained with 250 nM MitoTracker® Red CMXRos and Hoechst from ThermoFisher Scientific (Waltham, MA) for 2 h after drug treatment. Spheroids were washed, fixated with 4% PFA, transferred into 96-well flat glass-bottom black microplate (Cellvis, Mountain View, CA), and mounted in wells.\nLDH activity was measured using LDH Cytotoxicity Assay Kit following the manufacturer protocol (Thermo Fisher Scientific, Waltham, MA). Briefly, H446 and SBC3 spheroids after 72 hours of drug treatments were mixed with 10 μl 10× lysis buffer and incubated for 45 min in cell culture incubator. 50 μl of lysed cells from each sample were used to measure absorbance by plate reader (Tecan Spark 10, Salzburg, Austria). Percentage of cell cytotoxicity/death was calculated by using the following formula: […]"}, "SBC3 spheroids": {"tested_on": "SBC3 spheroids", "test": "Immunoblotting of spheroid lysates", "format": "cell-based, human", "protocol": "SCLC total cell lysates were prepared using RIPA (radioimmunoprecipitation assay lysis buffer) lysis buffer. Protein concentration was determined using DC Protein Assay Kit Bio-Rad (Hercules, CA). Samples were then run on SDS-PAGE in 4-15% polyacrylamide gels and transferred onto Immobilon membranes (Millipore, MO), blocked, incubated with specific primary antibodies at 4° C. overnight, and subsequently developed with secondary antibodies. The following primary antibody were used: pan-Actin, Phospho-DRP1 (Ser^616), Phospho-DRP1 (Ser^637), Histone H2B (V^119), Phospho-Histone H2A.X (Ser^139), Phospho-P53 (Ser^15), P-53, Cleaved PARP (Asp^214) (D64E10), Phospho-Chk1 (Ser^345) (133D3) and p21 were from Cell Signaling Technology (City of Industry, CA), β-Actin (Sigma-Aldrich, St. Luis, MO), Phospho RNA Polymerase II (S2) antibody (Bethyl Lab, Montgomery, TX), RNA Polymerase II CTD4H8 (BioLegend, San Diego, CA), DHODH (E-8), DRP1 (C-5), GAPDH (0411), c-Myc (9E10), Tom20 (F-10), FisI (B-5), OPA1 (D-9), antibodies from Santa Cruz Biotechnology (Dallas, TX) and MFN2 (Abcam, Boston, MA) and Chk1, MDM2, Cyclin CDK4 and D1, and E2F1 (Proteintech, Rosemont, IL).\nas §1"}, "[1]": {"tested_on": "pDRP1 (Ser616) in SBC3 cells", "test": "pDRP1 Ser616 immunofluorescence staining, QuPath", "format": "cell-based, human", "details": "SBC3, Teri overnight", "protocol": "(§2) SBC3 and SBC5 cells were grown on glass coverslips and treated with Teri overnight. Next, cells were fixed in 4% paraformaldehyde, permeabilized, and blocked before incubating with pDRP1 (Ser^616) antibody followed by Alexa 488 secondary antibody. This was followed by staining with Tom20 (F-10) antibody. A far-red dye was used for cytoplasmic staining. Fluorescent images were acquired on an Axio Observer 7 inverted microscope (Carl Zeiss, Jena, Germany). Nuclei and DRP1 were stained with DAPI and Alexa 488 secondary antibody. All imaging was performed using a 40×/0.95 NA Plan-Apochromat objective with a final per pixel scaling of 0.147 by 0.147 microns. Within each 3×3 field of image view (>200 cells per image), QuPath 0.2.0M9 was used to detect cell nuclei, a cytoplasmic area around the nucleus was expanded for analysis, followed by limiting the area of that blind expansion based on the presence of the cytoplasmic dye. […] The mean pDRP1 signal intensity was then measured within that area. The green intensity sum of these areas was calculated per cell and then averaged for each sample image.\n(§3) Additionally, SBC3 and SBC5 cells were stained with pDRP1 Ser^616 antibody (2° ab Alexa488), and the phosphorylation level was analyzed with QuPath 0.2.0M9 software."}, "[2]": {"tested_on": "pDRP1 (Ser616) in SBC5 cells", "test": "pDRP1 Ser616 immunofluorescence staining, QuPath", "format": "cell-based, human", "details": "SBC5, Teri overnight", "protocol": "as §2, §3"}}}
{"compound": "Cc1oncc1C(=O)Nc1ccc(C(F)(F)F)cc1", "note": "[Leflunomide, leflunomide]", "values": [{"measurement": "final tumor weight (day 40)", "setting": "SBC5 xenograft", "result": "1.49 ± 0.20", "unit": "g"}, {"measurement": "pDRP1 Ser616 immunofluorescence in tumor sections", "setting": "SBC3 xenograft; SBC3 xenograft FFPE tumors", "result": "significant decrease"}, {"measurement": "reduction in tumor size/weight", "setting": "SBC3 xenograft; SBC3 xenograft, day 40, vs control", "result": "~36", "unit": "%"}, {"measurement": "average final tumor weight at end of study (day 40)", "setting": "SBC3 xenograft; SBC3 xenograft, Carbo 50 mg/kg, Leflu 7.5 mg/kg, i.p. twice a week", "result": "1.01 ± 0.14", "unit": "g"}]}
{"compound": "COc1ccc2[nH]c3c(c2c1)CCN[C@]31CS[C@@H]2c3c(OC(C)=O)c(C)c4c(c3[C@H](COC1=O)N1[C@@H]2[C@H]2c3c(cc(C)c(OC)c3O)C[C@@H]([C@@H]1O)N2C)OCO4", "note": "[Lurbinectedin, lurbinectedin]", "values": [{"measurement": "percentage of dead cells", "setting": "H446 spheroids", "result": "significantly increased"}, {"measurement": "p21 level", "setting": "SBC3 spheroids", "result": "upregulated"}]}
{"compound": "C/C(O)=C(\\C#N)C(=O)Nc1ccc(C(F)(F)F)cc1", "note": "[Teriflunomide, teriflunomide]", "values": [{"measurement": "pDRP1 Ser616 green IF signal intensity", "setting": "[1]", "result": "significant signal intensity decreased"}, {"measurement": "pDRP1 Ser616 green IF signal intensity", "setting": "[2]", "result": "significant signal intensity decreased"}]}
